Source: ChEMBL document CHEMBL6153133, “Discovery of Diphenyl Ether Derivatives as Novel BKCa Channel Activators: Structure-Activity Relationship, Cryo-EM Complex Structures, and In Vivo Animal Studies” (J Med Chem, 2025)
One block for each compound: values may come before it. The source made the active and inactive calls. The rule behind the calls is not given here.

Assays:
[1] = tested on: Calcium-activated potassium channel subunit alpha-1 (Homo sapiens), Q12791 [UNDEFINED MUTATION]; test: (§1) Activation of hyperactive human BKca channel G803D/N806K mutant transfected in human AD-293 cells assessed as maximum relative fluorescence value at 5 uM preincubated for 15 mins followed by Tl+ stimulus buffer addition and measured after 80 sec by Flexstation3 multimode microplate reader analysis relative to control; assay type: cell-based; conditions: time 980.0 sec
Sequence of Calcium-activated potassium channel subunit alpha-1 (Homo sapiens), Q12791 [UNDEFINED MUTATION] (Q12791 whole entry, looked up, stated change not applied): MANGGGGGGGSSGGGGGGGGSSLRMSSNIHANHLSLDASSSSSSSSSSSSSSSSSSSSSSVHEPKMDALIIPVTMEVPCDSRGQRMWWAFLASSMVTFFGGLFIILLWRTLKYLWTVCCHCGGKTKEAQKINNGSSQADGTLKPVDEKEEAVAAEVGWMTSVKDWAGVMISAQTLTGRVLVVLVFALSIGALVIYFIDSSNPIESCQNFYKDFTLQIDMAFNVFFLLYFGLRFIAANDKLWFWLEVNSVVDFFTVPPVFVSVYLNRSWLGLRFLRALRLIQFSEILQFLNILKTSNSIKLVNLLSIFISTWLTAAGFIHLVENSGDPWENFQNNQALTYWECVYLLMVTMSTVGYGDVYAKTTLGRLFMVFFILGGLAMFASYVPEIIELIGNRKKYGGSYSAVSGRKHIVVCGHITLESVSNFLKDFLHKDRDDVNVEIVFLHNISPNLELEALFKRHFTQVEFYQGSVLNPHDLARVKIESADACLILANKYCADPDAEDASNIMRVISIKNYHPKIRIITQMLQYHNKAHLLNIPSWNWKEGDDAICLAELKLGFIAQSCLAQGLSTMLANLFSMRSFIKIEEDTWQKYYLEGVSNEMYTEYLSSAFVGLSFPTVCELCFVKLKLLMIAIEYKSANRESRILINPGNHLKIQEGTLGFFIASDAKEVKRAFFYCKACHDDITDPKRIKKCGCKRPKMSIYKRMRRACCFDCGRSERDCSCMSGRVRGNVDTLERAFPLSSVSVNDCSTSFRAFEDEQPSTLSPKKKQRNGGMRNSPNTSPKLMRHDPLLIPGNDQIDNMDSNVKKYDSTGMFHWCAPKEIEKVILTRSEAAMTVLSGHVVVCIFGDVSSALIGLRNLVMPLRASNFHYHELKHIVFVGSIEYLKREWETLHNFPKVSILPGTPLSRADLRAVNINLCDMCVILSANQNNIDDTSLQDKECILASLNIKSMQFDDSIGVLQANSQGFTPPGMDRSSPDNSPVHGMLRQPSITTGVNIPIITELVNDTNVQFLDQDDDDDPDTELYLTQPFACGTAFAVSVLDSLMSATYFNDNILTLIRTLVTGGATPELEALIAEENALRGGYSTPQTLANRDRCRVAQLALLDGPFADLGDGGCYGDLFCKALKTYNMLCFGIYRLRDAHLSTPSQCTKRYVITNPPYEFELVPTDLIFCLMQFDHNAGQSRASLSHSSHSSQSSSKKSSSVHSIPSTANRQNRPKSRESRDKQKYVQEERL

[2] = tested on: Calcium-activated potassium channel subunit alpha-1 (Homo sapiens), Q12791 [UNDEFINED MUTATION]; test: as §1, with “at 1” for “at 5”; assay type: cell-based; conditions: time 980.0 sec
[3] = tested on: Calcium-activated potassium channel subunit alpha-1 (Homo sapiens), Q12791 [UNDEFINED MUTATION]; test: (§2) Activation of hyperactive human BKca channel G803D/N806K mutant transfected in human AD-293 cells incubated for 15 mins by Flexstation3 multimode microplate reader analysis; assay type: cell-based
[4] = biological target: T1, Calcium-activated potassium channel subunit alpha-1 (Homo sapiens, UniProt Q12791); test: Activation of BKca channel (unknown origin) by cell-based fluorescence assay
T1 sequence (Q12791 whole entry): as the sequence (Q12791 whole entry, looked up, stated change not applied) above

[5] = biological target: T1, Calcium-activated potassium channel subunit alpha-1; test: Activation of BKca channel (unknown origin) by cell based method
[6] = biological target: Calcium-activated potassium channel subunit alpha-1 (Homo sapiens, UniProt Q12791, G803D/N806K); test: as §2; assay type: cell-based
Sequence of Calcium-activated potassium channel subunit alpha-1 (Homo sapiens, UniProt Q12791, G803D/N806K) (Q12791 whole entry, looked up, stated change not applied): as above

[7] = Metabolic stability in rat liver microsomes assessed as parent compound remaining at 1 uM preincubated for 5 mins followed by NADPH addition and measured after 30 mins by LC-MS/MS analysis; assay type: ADME, Microsome; conditions: read-out: Stability
[8] = Metabolic stability in human liver microsomes assessed as parent compound remaining at 1 uM preincubated for 5 mins followed by NADPH addition and measured after 30 mins by LC-MS/MS analysis; assay type: ADME, Microsome; conditions: read-out: Stability
[9] = Metabolic stability in rat liver microsomes assessed as parent compound remaining at 1 uM preincubated for 15 mins followed by UDPGA addition and measured after 60 mins by LC-MS/MS analysis; assay type: ADME, Microsome; conditions: time 75 min, read-out: Stability
[10] = Metabolic stability in human liver microsomes assessed as parent compound remaining at 1 uM preincubated for 15 mins followed by UDPGA addition and measured after 60 mins by LC-MS/MS analysis; assay type: ADME, Microsome; conditions: time 75 min, read-out: Stability
Rattus norvegicus = test: Reversal of urinary incontinence in male spontaneous hypertensive rat model assessed as decrease in urine frequency at 20 to 40 mg/kg, po measured after 3 hrs; assay type: functional, organism-based; conditions: dose 20-40 mg/kg
[11] = Half-life in male Sprague-Dawley rat at 10 mg/kg, iv by LC-MS/MS analysis; assay type: ADME, organism-based; conditions: in vivo
[12] = AUClast in male Sprague-Dawley rat at 10 mg/kg, iv by LC-MS/MS analysis; assay type: ADME, organism-based; conditions: in vivo
[13] = Clearance in male Sprague-Dawley rat at 10 mg/kg, iv by LC-MS/MS analysis; assay type: ADME, organism-based; conditions: in vivo
[14] = Volume of distribution at steady state in male Sprague-Dawley rat at 10 mg/kg, iv by LC-MS/MS analysis; assay type: ADME, organism-based; conditions: in vivo, read-out: Vdss
[15] = Cmax in male Sprague-Dawley rat at 10 mg/kg, po by LC-MS/MS analysis; assay type: ADME, organism-based; conditions: in vivo
[16] = Tmax in male Sprague-Dawley rat at 10 mg/kg, po by LC-MS/MS analysis; assay type: ADME, organism-based; conditions: in vivo
[17] = Half-life in male Sprague-Dawley rat at 10 mg/kg, po by LC-MS/MS analysis; assay type: ADME, organism-based; conditions: in vivo
[18] = AUClast in male Sprague-Dawley rat at 10 mg/kg, po by LC-MS/MS analysis; assay type: ADME, organism-based; conditions: in vivo
[19] = Oral bioavailability in male Sprague-Dawley rat at 10 mg/kg by LC-MS/MS analysis; assay type: ADME, organism-based; conditions: in vivo

Activity [3]: inactive
SMILES: Nc1ccc(Oc2c(F)c(F)c(C(F)(F)F)c(F)c2F)nc1

Activity [3]: inactive
SMILES: NC(=O)c1ccc(Oc2c(F)c(F)c(C(F)(F)F)c(F)c2F)cc1

Activity ([1]; filed as opener): 91.7%
EC50 [6]: 0.42 µM
Activity ([2]; filed as opener): 91.7%
remaining at 0.5 h, 1 µM [7]: 4%
remaining at 0.5 h, 1 µM [8]: 76%
remaining at 1 h, 1 µM [9]: 4.7%
remaining at 1 h, 1 µM [10]: 1.6%
SMILES: CNc1ccc(Oc2c(F)c(F)c(C(F)(F)F)c(F)c2F)c(O)c1

Activity ([1]; filed as opener): 107%
Activity [2]: 31.8%
SMILES: COc1cc(N)ccc1Oc1c(F)c(F)c(C(F)(F)F)c(F)c1F
Activity (Rattus norvegicus): inactive

Activity [1]: 1%
SMILES: Fc1c(F)c(C(F)(F)F)c(F)c(F)c1Oc1ccc2[nH]ccc2c1

Activity [1]: 38%
SMILES: Nc1ccc(Oc2c(F)c(F)c(C(F)(F)F)c(F)c2F)c(C(F)(F)F)c1

Activity [1]: 1%
SMILES: Fc1c(F)c(C(F)(F)F)c(F)c(F)c1Oc1ccc2[nH]cnc2c1

Activity [1]: 2.4%
SMILES: NCCCNc1ccc(Oc2c(F)c(F)c(C(F)(F)F)c(F)c2F)c(O)c1

half-life [11]: 2.1 h
AUC(0-t) [12]: 6260 ng·h/mL
clearance [13]: 25 mL/min/kg
Vd [14]: 3.5 L/kg
Cmax [15]: 182 ng/mL
Tmax [16]: 1.2 h
half-life [17]: 6.4 h
AUC(0-t) [18]: 668 ng·h/mL
bioavailability [19]: 9.9%
SMILES: COc1cc(N)ccc1Oc1c(F)c(F)c(C(F)(F)F)c(F)c1F.Cl

Activity [1]: 10.3%
SMILES: Nc1ccc(Oc2c(F)c(F)c(C(F)(F)F)c(F)c2F)c(N)c1

Activity [1]: 3.3%
SMILES: NCCNc1ccc(Oc2c(F)c(F)c(C(F)(F)F)c(F)c2F)c(O)c1

Activity [1]: 18%
SMILES: NCCCCNc1ccc(Oc2c(F)c(F)c(C(F)(F)F)c(F)c2F)c(O)c1

Activity ([1]; filed as opener): 65.7%
SMILES: CCNc1ccc(Oc2c(F)c(F)c(C(F)(F)F)c(F)c2F)c(O)c1

Activity [1]: 1%
SMILES: Fc1c(F)c(C(F)(F)F)c(F)c(F)c1Oc1ccc2[nH]ncc2c1

Activity [1]: 5%
SMILES: Oc1cccc(Oc2c(F)c(F)c(Cl)c(F)c2F)c1

The next lines start with the compound.

SMILES: Oc1ccc(Oc2ccc(F)c(C(F)(F)F)c2)c(O)c1
Activity [1]: 19.8%

SMILES: Oc1ccc(Oc2ccc(Cl)c(C(F)(F)F)c2)c(O)c1
Activity ([1]; filed as opener): 74.7%

SMILES: Oc1ccc(Oc2cc(Cl)cc(Cl)c2)c(O)c1
Activity ([1]; filed as opener): 61.5%

SMILES: Oc1ccc(Oc2cc(C(F)(F)F)cc(C(F)(F)F)c2)c(O)c1
Activity ([1]; filed as opener): 99.3%
Activity [2]: 23.7%

SMILES: Oc1ccc(Oc2cccc(C(F)(F)F)c2)c(O)c1
Activity [1]: 5.5%

SMILES: COc1ccc(Oc2c(F)c(F)c(Cl)c(F)c2F)c(O)c1
Activity [3]: inactive

SMILES: Cc1cccc(NC(=O)c2sc(=S)n3c2[nH]c(=O)c2cc(Br)ccc23)c1
EC50 [4]: 2.7 µM
EC50 [5]: 2.7 µM

SMILES: Oc1cc(NCCCCN2CCOCC2)ccc1Oc1c(F)c(F)c(C(F)(F)F)c(F)c1F [listing 1 of 2 here]
Activity [1]: 9.3%

SMILES: Oc1ccc(Oc2c(F)c(F)c(Cl)c(F)c2F)cc1
Activity [1]: 6.1%

SMILES: Oc1ccc(Oc2ccc(Cl)cc2)c(O)c1
Activity [1]: 1.2%

SMILES: Oc1ccc(Oc2ccc(Cl)c(Cl)c2)c(O)c1
Activity [1]: 18.6%

SMILES: Oc1ccc(Oc2ccc(Cl)c(F)c2)c(O)c1
Activity [1]: 8.1%

SMILES: Oc1ccc(Oc2c(F)cc(C(F)(F)F)cc2F)c(O)c1
Activity ([1]; filed as opener): 66.9%

SMILES: Oc1cc(NCCCCN2CCOCC2)ccc1Oc1c(F)c(F)c(C(F)(F)F)c(F)c1F [listing 2 of 2 here]
EC50 [6]: 9.22 µM
remaining at 0.5 h, 1 µM [7]: 62.5%
remaining at 0.5 h, 1 µM [8]: 91.2%
